According to patent US11986512B2, “Compositions and methods for cancer therapy” (Thetis Pharmaceuticals LLC, priority 2021, dated 2024):

Key:
Type in all cases: in vivo, C57BL/6J male mice
[1] = system: MC-38 cells; assay: MC38 model of colorectal cancer, subcutaneous tumors; settings: 300 ug/kg, SC, single agent, P<0.05 vs placebo
Experimental: A representative compound of Formula IV, RvE1 magnesium dilysinate, was tested for efficacy in several mouse models of cancer, including the Panc2-H7 model of pancreatic cancer, the Lewis lung carcinoma (LLC) model, the MC38 model of colorectal cancer, and the B16F10 model of melanoma. These models are well established, highly tumorigenic syngeneic models in which murine cancer cell lines are injected subcutaneously (SC) into the dorsum of C57BL/6J mice. If left untreated, these tumors grow rapidly and lead to death or euthanasia, per protocol. As detailed below in Examples 1-9 and the accompanying figures, bis RvE1 Mg-di-lysinate (Compound 1) was unexpectedly effective as an anti-cancer agent in each of these model systems when administered in a less than daily (LTD) dosing regimen. […] Without being bound by any theory, the surprising efficacy of LTD dosing of resolvins in the cancer model systems described here may be the result of durable effects on the tumor microenvironment including changes in immune cell phenotype, vascularization, stromal phenotype, and antigen presentation, as well as durable effects on the T-cell compartment such as T-cell priming and increased tumor-infiltrating lymphocytes. […]

[2] = system: Panc2-H7 cells; assay: Panc2-H7 model, daily (QD) versus weekly (Q7D) dosing; settings: SC
Experimental: (§1) A representative compound of Formula IV, RvE1 magnesium dilysinate, was tested for efficacy in several mouse models of cancer, including the Panc2-H7 model of pancreatic cancer, the Lewis lung carcinoma (LLC) model, the MC38 model of colorectal cancer, and the B16F10 model of melanoma. These models are well established, highly tumorigenic syngeneic models in which murine cancer cell lines are injected subcutaneously (SC) into the dorsum of C57BL/6J mice. If left untreated, these tumors grow rapidly and lead to death or euthanasia, per protocol. As detailed below in Examples 1-9 and the accompanying figures, bis RvE1 Mg-di-lysinate (Compound 1) was unexpectedly effective as an anti-cancer agent in each of these model systems when administered in a less than daily (LTD) dosing regimen. […] Without being bound by any theory, the surprising efficacy of LTD dosing of resolvins in the cancer model systems described here may be the result of durable effects on the tumor microenvironment including changes in immune cell phenotype, vascularization, stromal phenotype, and antigen presentation, as well as durable effects on the T-cell compartment such as T-cell priming and increased tumor-infiltrating lymphocytes.
Based on the previous findings in the MC38 colorectal cancer model with less than daily (LTD) dosing, a study in the Panc2-H7 model was conducted to assess the efficacy of LTD dosing of bis RvE1 Mg-di-lysinate in a different tumor model. A total of forty (40) C57BL/6J male mice were injected subcutaneously with 1×10e6 living Panc2-H7 cells. Once tumors reached 160-320 mm^3 in size, the mice were randomized (n=8 per group) to treatment with vehicle or SC injection with bis RvE1 Mg-di-lysinate at 30 ug/kg and 300 ug/kg (QD, Q7D).

[3] = system: LLC cells; assay: Lewis lung carcinoma (LLC) model, with and without anti-PD1 or cisplatin; settings: P<0.05
Experimental: as §1
To expand our understanding of bis RvE1 Mg-di-lysinate as a cancer therapy that could be used in combination with other cancer therapies including immune checkpoint inhibitors, bis RvE1 Mg-di-lysinate monotherapy and in combination either anti-PD1 or cisplatin was investigated in the LLC model of non-small cell lung cancer, which is a model known to unresponsive to anti-PD1 therapy and moderately responsive to cisplatin. Yu et al., J Exp Clin Cancer Res. 2010; 29(1):46; Lechner et al., J Immunother. 2013; 36(9):477-489. A total of forty (40) C57BL/6J male mice were injected subcutaneously with 1×10e6 living LLC cells. […] In addition, bis RvE1 Mg-di-lysinate was evaluated in combination with anti-PD1 or cisplatin. […]

[4] = system: Panc2 cells; assay: Panc2-H7 model with or without anti-CTLA4
Experimental: To further corroborate the findings with weekly dosing of bis RvE1 Mg-di-lysinate and its efficacy in combination with immune checkpoint inhibitors (ICI), another study was conducted in the Panc2-H7 model with a different ICI. A total of twenty-four (24) C57BL/6J male mice were injected subcutaneously with 1×10e6 living Panc2 cells. Once tumors reached 200 mm^3 in size based on mean tumor volume per cohort, the mice were randomized (n=8 per group) to treatment with vehicle, bis RvE1 Mg-di-lysinate (300 ug/kg, SC, Q7D) and bis RvE1 Mg-di-lysinate+anti-CTLA-4 (4 mg/kg, i.p, first dose; 2 mg/kg i.p, Q3D following the first dose).

[5] = system: KPC cells; assay: Orthotopic KPC model of pancreatic cancer, survival
Experimental: To expand our understanding of less than daily (LTD) dosing of bis RvE1 Mg-di-lysinate as a cancer therapy that could be used in combination with chemotherapy, bis RvE1 Mg-di-lysinate (Compound 1) was investigated in the orthotopic KPC model of pancreatic cancer. A total of fifteen (15) C57BL/6J male mice were implanted orthotopically with 5×10e5 living KPC cells into the pancreas. The mice were randomized (n=7-8) to treatment with bis RvE1 Mg-di-lysinate (300 ug/kg, SC, Q6D) with or without gemcitabine (50 mg/kg, IP, Q3D, up to 6 doses) one day after tumor cell implantation.

SMILES: CC[C@@H](O)/C=C/C=C\C[C@@H](O)/C=C/C=C/C=C\[C@@H](O)CCCC(=O)O [bis RvE1 Mg-di-lysinate]
- tumor volume (Day 15 vs Day 0) ([1]; Q3D): effective as a single agent
- tumor volume (Day 15 vs Day 0) ([1]; QD): effective as a single agent
- tumor volume (Day 20 vs Day 0) ([2]; 30 ug/kg, Q7D): inhibition relative to placebo control
- tumor volume (Day 20 vs Day 0) ([2]; 30 ug/kg, QD): inhibition relative to placebo control
- tumor volume (Day 20 vs Day 0) ([2]; 300 ug/kg, Q7D, P<0.05 vs placebo control): greatest inhibition
- tumor volume (Day 20 vs Day 0) ([2]; 300 ug/kg, QD): inhibition relative to placebo control
- tumor volume (Day 11 vs Day 0) ([3]; bis RvE1 Mg-di-lysinate 30 ug/kg SC QD in combination with anti-PD1 8 mg/kg IP Q3D): reduced tumor volume compared to placebo and cisplatin and anti-PD1 alone
- tumor volume (Day 11 vs Day 0) ([3]; bis RvE1 Mg-di-lysinate 30 ug/kg SC QD in combination with cisplatin 5 mg/kg i.p Q5D): reduced tumor volume compared to placebo and cisplatin and anti-PD1 alone
- tumor volume over time ([4]; bis RvE1 Mg-di-lysinate 300 ug/kg SC Q7D + anti-CTLA-4 (4 mg/kg i.p first dose, 2 mg/kg i.p Q3D), p<0.001): significant inhibition related to both placebo and bis RvE1 Mg-di-lysinate alone
- tumor volume over time ([4]; monotherapy, 300 ug/kg, SC, Q7D): significant inhibition as monotherapy compared to placebo
- mean survival ([5]; bis RvE1 Mg-di-lysinate 300 ug/kg SC Q6D in combination with gemcitabine 50 mg/kg IP Q3D up to 6 doses): 129 days
- mice alive as of the last observation (day 250) ([5]; bis RvE1 Mg-di-lysinate + gemcitabine combination group, three of the seven mice): 43%
- increase in survival, combination versus gemcitabine monotherapy ([5]; bis RvE1 Mg-di-lysinate + gemcitabine, p<0.05): four-fold increase in survival
